From PMC10777851, “SMT-738: a novel small-molecule inhibitor of bacterial lipoprotein transport targeting Enterobacteriaceae” (Antimicrobial Agents and Chemotherapy, 2023)
In brackets after ≈: the same amount, converted by molar mass. Several values for one entry are separate records, joined by “and”; a condition that tells them apart may be missing. Equal entries are not always repeated.

How the values were obtained:
K. pneumoniae = experiment: MIC by broth microdilution (CLSI) against K. pneumoniae; assay type: cell-based, Klebsiella pneumoniae
Experimental: (§1) MIC tests were performed by broth microdilution in-line with CLSI susceptibility testing standards ([20], [21]) either in-house or at IHMA (Europe and USA) or JMI Laboratories using cation-adjusted Mueller Hinton Broth.

[1] = test system: two respiratory isolates (carrying NDM-5 and TEM-OSBL) from Russia in 2019; experiment: MIC against two cefiderocol-resistant respiratory isolates; assay type: cell-based
Experimental: as §1

E. coli NCTC 13441 = experiment: Time-kill experiment, E. coli; assay type: cell-based, Escherichia coli; details: 2× and 4× the MIC
Experimental: An overnight culture of the test strain was diluted to a viable cell density of ~10^6 CFU/mL and dispensed into 96-well plates containing dilutions of SMT-738 to yield the specified multiple of the MIC. Plates were sealed with a breathable seal and incubated under shaking conditions in a humid incubator at 37°C. At specific timepoints (t = 0, 1, 2, 4, 6, 8, and 24 h), samples were taken and plated onto MH agar plates, and colonies enumerated after overnight growth at 37°C. Viable cell numbers as log10 (CFU/mL) were then plotted against time. Where no colonies were detected, the limit of detection was 100 CFU/mL. Compound activity was scored as bactericidal if the viable cell count decreased by at least 3 log10 from the initial count.

[2] = test system: KPM (K. pneumoniae NCTC 13438) LolC and LolE mutants; experiment: MIC fold change of resistant LolC/LolE mutants, KPM; assay type: cell-based, Klebsiella pneumoniae
Experimental: as §1
The FoR of bacterial strains to test compounds was determined by plating aliquots of overnight cultures onto MH-agar plates containing dilutions of the test compound at various multiples of reference MIC as previously determined. Total viable counts of the overnight cultures were determined by spotting 10–20 µL of decimal dilutions in 1× phosphate-buffered saline (PBS) onto non-selective agar. Assay plates were incubated for up to 48 h with colonies being enumerated every 24 h. FoR was determined by dividing the number of colonies observed by the total number of viable cells plated. Representative colonies were then picked and streaked onto selective agar to confirm resistance and obtain resistant isolates. Isolates growing on selective agar were then used to initiate overnight cultures, bacteria pelleted by centrifugation, supernatant removed, and pellets stored at −80°C for subsequent DNA extraction and whole-genome sequencing. Genomic DNA was extracted using the DNeasy Blood and Tissue Kit (Qiagen), quantified using the Quant-iT TM PicoGreen TM dsDNA Assay Kit (Thermo Fisher Scientific), and normalized to 0.2 ng/µL in nuclease-free water. Library preparation and barcode addition were with the Nextera XT DNA Library Prep Kit (Illumina). KAPA Pure beads (Roche) were used for DNA purification. Samples were pooled to achieve 100× coverage of each sample and run on an Illumina Nextseq 500/550 Mid Output Kit v2.5 (150 cycles) (Illumina).

[3] = test system: Renal proximal tubule epithelial cells; experiment: Nephrotoxicity assay (cell health markers); assay type: cell-based; details: top concentration of 500 µM (= 196.85 µg/mL)
Experimental: The standard nephrotoxicity assay was performed by Cyprotex, UK. Renal proximal tubule epithelial cells were exposed to a range of concentrations of compound, loaded with relevant dye/antibody for each cell health marker and scanned using a fluorescent cellular imager (ArrayScan, Thermo Scientific Cellomics). Cell health parameters that were analyzed: cell count, nuclear size, DNA structure, mitochondrial mass, mitochondrial membrane potential, phospholipidosis, glutathione content, and cellular ATP.

[4] = Pharmacokinetics after IV bolus in mice; assay type: in vivo, male CD-1 mice; details: 20-mg/kg bolus IV
Experimental: Male CD-1 mice (from Charles River, Margate UK) were administered 20 mg/kg of SMT-738 via IV bolus route. At selected timepoints, blood, kidney tissue, lung tissue, and urine were collected and progressed for further analysis. The PK parameters included initial concentration (C 0) via extrapolation, clearance (CL), volume of distribution (V ss), and AUC0-t in plasma were determined using non-compartmental analysis. Tissue partitioning values were determined with ratio of AUC0-t,kidney/AUC0-t,plasma for kidney (K p,kidney) and ratio of AUC0-t,lung/AUC0-t,plasma for lung (K p,lung). The mean recovery (%) of SMT-738 unchanged in urine was determined by amount in urine compared to the intravenously administered dose. The study was conducted by Evotec Ltd (UK).

Protein binding, dog = assay type: in vitro ADME
E. coli UTI89 = experiment: Murine UTI infection model; assay type: in vivo, female C3H/HeN mice; details: urine and kidney, 20 mg/kg QD or BID, 60-min IV infusion over 3 days, readout 96 h; below the limit of detection
Experimental: Female JVC (jugular venous catheter)-cannulated C3H/HeN mice were placed on drinking water which was supplemented with 5% glucose solution prior to infection. Mice were infected transurethrally with E. coli UTI89 following published methods. SMT-738 was intravenously infused over 60 min once (QD) or twice (BID, 4 h after the end of first infusion) per day for 3 days starting 24 h post-inoculation. The mice from pre-treatment group were euthanized (with an overdose of pentobarbitone) at 24 h, the remaining mice were euthanized at 96 h post-infection. The kidney, bladder, and urine were collected and quantitatively cultured by plating serial dilutions on appropriate media; CFU were counted after overnight incubation at 37°C. A Kruskal-Wallis statistical test was performed.

K. pneumoniae ATCC 43816 = experiment: Murine lung infection model (neutropenic); assay type: in vivo, male CD-1 mice; details: 20 mg/kg per dose QD or BID, 60-min IV infusion, 24 h post-infection
Experimental: Male JVC-cannulated CD-1 mice were rendered neutropenic using cyclophosphamide on days −4 and −1 (150 and 100 mg/kg, respectively). Mice were infected intranasally with K. pneumoniae ATCC 43816, and SMT-738 treatment was initiated at QD, 2 h post-infection; BID, 2 and 5 h post-infection. The pre-treatment control animals were euthanized at 2 h post-infection. All other study animals were euthanized at 24 h post-infection. Lungs were dissected and homogenized and quantitatively cultured, serially diluted, and plated on CLED agar, and CFU were quantified following overnight incubation at 30°C. A Kruskal-Wallis statistical test was performed.

[5] = 100 MDR clinical isolates incl. ESBL and CRE

Structure (SMILES): Cc1cnccc1-c1[nH]c(N)nc1-c1ccc2c(c1)N(C(=O)C(C)(C)N)CCO2 [SMT-738]
- MIC Range K. pneumoniae (NDM) (K. pneumoniae; 15 clinical MDR NDM isolates (NDM-1, NDM-4, NDM-5) from India (2018)): 0.5 to 1 µg/mL
- MIC50 K. pneumoniae (K. pneumoniae; [5]): 1 µg/mL (≈ 2.55 µM)
- MIC90 K. pneumoniae (K. pneumoniae; [5]): 2 µg/mL (≈ 5.1 µM)
- MIC range K. pneumoniae (K. pneumoniae; [5]): 0.25 to 8 µg/mL
- MIC (K. pneumoniae; K. pneumoniae ATCC 43816): 0.5 µg/mL (≈ 1.27 µM)
- MIC (20% HS) (K. pneumoniae; K. pneumoniae IHMA 1769429, 20% human serum): 1 µg/mL (≈ 2.55 µM)
- MIC (50% HS) (K. pneumoniae; K. pneumoniae IHMA 1769429, 50% human serum): 2 µg/mL (≈ 5.1 µM)
- MIC (no HS) (K. pneumoniae; K. pneumoniae IHMA 1769429, no human serum): 2 µg/mL (≈ 5.1 µM)
- MIC (20% HS) (K. pneumoniae; K. pneumoniae IHMA 1770556, 20% human serum): 0.5 µg/mL (≈ 1.27 µM)
- MIC (50% HS) (K. pneumoniae; K. pneumoniae IHMA 1770556, 50% human serum): 1 µg/mL (≈ 2.55 µM)
- MIC (no HS) (K. pneumoniae; K. pneumoniae IHMA 1770556, no human serum): 1 µg/mL (≈ 2.55 µM)
- MIC (K. pneumoniae; K. pneumoniae NCTC 13438 (MDR, Class A KPC)): 1.56 µM and 0.61 µg/mL
- MICref (K. pneumoniae; Kpm13438, reference MIC of the FoR experiments): 3.13 µM and 1.22 µg/mL
- MIC ([1]; first of the two respiratory isolates): 0.25 µg/mL (≈ 0.637 µM)
- MIC ([1]; second of the two respiratory isolates): 0.5 µg/mL (≈ 1.27 µM)
- re-growth over the 24-h timepoint (E. coli NCTC 13441): no observed re-growth
- timepoint at which bactericidal activity was displayed (E. coli NCTC 13441): 2 h
- reduction of viability (E. coli NCTC 13441; 2-h timepoint): > 3 log10 CFU/mL
- MIC fold change increase ([2]; LolC E198K mutant): E198K (64×)
- MIC fold change increase ([2]; LolE L60P mutant): L60P (16×)
- MIC fold change increase ([2]; LolE M261R mutant): M261R (>64×)
- nephrotoxicity [3]: No toxicity was observed
- Kp,kidney ([4]; AUC0-t,kidney/AUC0-t,plasma): 44.8
- Kp,lung ([4]; AUC0-t,lung/AUC0-t,plasma): 8.1
- eliminated unchanged into the urine ([4]; over a 24-h period): approximately 29.5%
- CL ([4]; plasma): 59 mL/min/kg
- Vss ([4]; plasma): 4.3 L/kg
- C0 ([4]; plasma, via extrapolation): 18,386 ng/mL
- protein binding (Protein binding, dog): 50.6%
- reduction of bacterial burden compared to pre-treatment (E. coli UTI89): 5–6 log10
- reduction of the bacterial burden below pre-treatment stasis level (K. pneumoniae ATCC 43816): 1–2 log10
